These results are taken from patent US6376211B1, “Agents and methods for inhibiting F1/F0 ATPase” (XOMA Technology Ltd., priority 1999, dated 2002).

For assay [1], the system named is E. coli O111:B4. Put plainly: In vitro bactericidal activity. In kind it is cell-based.
Assay [2] has as its system whole cells. In words: Membrane potential indicator dye assay of whole cells (general description). Conditions: retention of the dye notwithstanding onset of loss of viability at the same concentration. The class given is cell-based. The text has this:
(§1) The effect of test compounds on ATP synthase activity of whole cells can also optionally be assayed using any membrane potential indicator dye or metabolic oxidation-reduction indicator dye known in the art. See Loew, Chapter 8 in Biomembrane Electrochemistry, Blank and Vodyanoy, eds., American Chemical Society, Washington, DC (1994), pages 151-173. Particularly preferred dyes are membrane potential dyes such as DiOC6(3), JC-1, rhodamine 123, or MitoTracker® reduced dyes [Molecular Probes, Eugene, Oreg.]. […] Other preferred dyes are metabolic oxidation-reduction indicator dyes such as Alamar Blue™ [AccuMed Int'l, Westlake, Ohio]. […] See U.S. Provisional Application Ser. No. 60/143,290 filed Jul. 12, 1999 and corresponding co-owned, concurrently filed U.S. application Ser. No. 09/543,955, both of which are incorporated herein by reference and U.S. Provisional Application Ser. No. 60/143,485 filed Jul. 12, 1999 and corresponding U.S. application Ser. No. 09/404,926 filed Sep. 24, 1999 and International Application No. PCT/US99/22361 filed Sep. 24, 1999, all of which are incorporated herein by reference. Iterative screening for compound selection may employ one or combination of assays for testing.

The subject of another assay is E. coli. In words: Metabolic oxidation-reduction indicator dye Alamar Blue assay. In kind it is cell-based. How it is done: (§2) The effect of antibacterial BPI protein products on the activity of bacterial ATP synthase as measured by a metabolic oxidation-reduction indicator dye and a membrane potential indicator dye was determined as described in Example 2 of U.S. Provisional Application Ser. No. 60/143,290 filed Jul. 12, 1999 and corresponding co-owned, concurrently filed U.S. application Ser. No. 09/543,955, both of which are incorporated herein by reference and Example 9 of U.S. Provisional Application Ser. No. 60/143,485 filed Jul. 12, 1999 and corresponding U.S. application Ser. No. 09/404,926 filed Sep. 24, 1999 and International Application No. PCT/US99/22361 filed Sep. 24, 1999, all of which are incorporated herein by reference.
(In general: The colour change of resazurin is a common sign of viable cells or microbes.)

In assay [3] the test system is E. coli O111:B4. Put plainly: Membrane potential indicator dye DiOC6(3) assay. In kind it is cell-based. How it is done: as §2
Assay [4] deals with whole cells. Put plainly: Metabolic oxidation-reduction indicator dye (Alamar Blue) assay of whole cells (general description). Conditions: at a less than fully cytotoxic concentration. In kind it is cell-based.
From the text: as §1

In the next assay the target is E. coli ATP synthase. Conditions: bacterial membrane preparations; about ... and higher.
For assay [5], the target named is T1, mammalian mitochondrial ATP synthase.
T1 construct: ATP synthase enzymic activity in mitochondrial preparations; from tissue; host or cells: mouse liver mitochondria, deoxycholate-lysed membrane pellet
In words: Phosphatase activity of ATP synthase in mitochondrial membrane preparations (mouse liver). The class given is biochemical. As to conditions: 1.35 μM rBPI21, 0.082 and 0.482 μM XMP.391, 0.076 and 0.553 μM XMP.416. How it is done: The effect of BPI protein products on ATP synthase enzymic activity in mitochondrial preparations was evaluated. Mitochondrial membrane preparations were prepared as follows. Male laboratory mice (Mus musculus) were sacrificed by cervical dislocation and their livers were immediately excised. The gall bladder and connective tissues were removed and the livers were washed in 0.25 M sucrose. Wet liver weight was determined after blotting the washed liver on absorbent paper. All subsequent steps of the fractionation procedure were performed on ice. The weighted livers were then homogenized with a Potter Elvehjem tissue homogenizer and six passes of a teflon pestle in 9 volumes of 0.25 M sucrose with protease inhibitors (2 μg/mL pepstatin A, 2 μg/mL aprotinin and 1 mM phenylmethylsulfonyl fluoride (PMSF). Liver homogenates were then centrifuged in a Beckman (Fullerton, Calif.) J2-21 centrifuge for 10 minutes at 600×g. The 600×g pellet (nuclei, unbroken cells and connective tissue) was discarded and the supernatant was subjected to further centrifugation. The 600×g supernatant was centrifuged at 7000×g for 10 minutes to yield a crude mitochondrial pellet.
Crude mitochondria were resuspended in 3 volumes of the original liver weight with 0.25 M sucrose and centrifuged at 7000×g for 10 minutes. The supernatant was discarded and the procedure was repeated. […]

For another assay, the system named is bacterial growth. Conditions: cited from earlier work.

Where only a bound is given, the exact number is not on record here.

Procedure for E. coli ATP synthase: The effect of antibacterial BPI protein products on the ATP synthesis activity of an E. coli ATP synthase was determined as follows. Bacterial membranes were prepared as follows. A 400 mL culture of E. coli was grown overnight in TSB at 37° C. with shaking. Cells were harvested by centrifugation for 10 minutes at 1000×g, followed by washing with 20 mL of PBS and recentrifugation. Cells were resuspended in 4 ml of 25 mM HEPES, pH 7.6, 0.1 M KCl, 0.1 M EDTA, 12.5 mM MgCl2, 10% glycerol, 0.1% NP40. Then 50 μl of lysozyme (50 mg/ml) was added and the cells were incubated for 30 minutes on ice. Cells were disrupted by sonication in 3×30-second pulses. Cells were placed on ice between pulses. DNAse I was added to a 10 μg/mL final concentration (GIBCO Life Technologies, Gaithersburg, Md.) and the homogenate was left on ice for 30 minutes. […] The final pellet was resuspended in 2 mL 10 mM Tris-HC1, pH 7.0, 0.1 mM EDTA, 20% glycerol and protein concentration was determined by standard Bradford assay.
In a 96 well plate (Microlite 1, DYNEX Technologies, Chantilly Va.), 25 μg bacterial membranes were diluted into 100 μl of 55.5 mM Tris-HC1, pH 7.8, 0.222 mM MgSO4 plus the compound to be tested (XMP.391 (SEQ ID NO: 4) and rBPI21 at concentrations ranging from 40 μg/mL to 0.625 μg/mL). […] Assays were read in Endpoint mode with 30 reads per well.

With “XMP.365: BPI-derived peptide, SEQ ID NO: 3; structure described in U.S. Pat. No. 5,858,974 (KWLIQLFHKK)”, the “in vitro bactericidal activity” value in the assay with E. coli O111:B4 [1] is “has in vitro bactericidal activity against this strain”. Further, the “pattern of accumulation of membrane potential dye in cells” value with whole cells [2] is “accumulation in cells of membrane potential dye in a peptide concentration-dependent manner”. Besides, the “apparent metabolic activity relative to untreated controls” value with E. coli is reported as “apparent increased metabolic activity”. In the assay with E. coli O111:B4 [3], the “accumulation and retention of membrane potential dye” value was “produced an accumulation and retention of the dye despite cell death”. The “pattern of metabolic oxidation-reduction activity relative to control cells” value with whole cells [4] is “increased metabolic oxidation-reduction activity relative to control cells”.
Turning to “XMP.391: BPI-derived peptide, SEQ ID NO: 4 (KVGWLIQLFHKK)”, in the assay with E. coli ATP synthase, the “concentration at which synthesis of ATP from ADP is inhibited in a dose-dependent manner” value is at least 1 µg/mL. In the assay on E. coli, the “apparent metabolic activity relative to untreated controls” value was “apparent increased metabolic activity”. Further, the “inhibition of phosphatase activity of ATP synthase” value in assay [5] is reported as “inhibited the phosphatase activity”. The “pattern of metabolic oxidation-reduction activity relative to control cells” value with whole cells [4] was “increased metabolic oxidation-reduction activity relative to control cells”.
In the case of “XMP.416: BPI-derived peptide, SEQ ID NO: 5 (KWLIQLFHKK)”, the “inhibition of phosphatase activity of ATP synthase” value in assay [5] is listed as “inhibited the phosphatase activity”. Further, the “pattern of metabolic oxidation-reduction activity relative to control cells” value with whole cells [4] was “increased metabolic oxidation-reduction activity relative to control cells”.
Regarding gentamicin, the “concentration required to produce a therapeutic effect” value in the assay with bacterial growth is 8 µg/mL.
